In patent US20040248928A1, “Pharmaceutical composition comprising an adenosine A1/A2 agonist and a sodium hydrogen exchanger inhibitor” (Adventis Pharmaceuticals Inc., priority 2001, published 2004):
Marks after values point to notes of the source that are not given here.

Experiments:
open-chest rabbit hearts [1] = test: Infarct size, 45 min ischemia model (open-chest rabbit, TTC staining); type: in vivo, New Zealand White rabbits; conditions: 45 min ischemia + 3 h reperfusion; for Infarct size: (E)=5 min prior to ischemia, (L)=at reperfusion, (E&L)=from 5 min prior to ischemia for 120 min, mean ± S.E.M.; for Infarct size as a percentage of the risk zone: control 55.8±3.9%
Experimental: (§1) New Zealand White rabbits of either sex weighing 2.0-2.5 kg were anesthetized with pentobarbital (30 mg/kg iv), intubated through a tracheotomy, and ventilated with 100% oxygen via a positive pressure respirator (MD industries, Mobile, Ala.). The ventilation rate and tidal volume were adjusted to maintain arterial blood gases in the physiological range. Body temperature was maintained at 38-39° C. A catheter was inserted into the left carotid artery for monitoring blood pressure. Another catheter was inserted into the right jugular vein for drug infusion. A left thoracotomy was performed in the fourth intercostal space, and the pericardium was opened to expose the heart. A 2-0 silk suture on a curved taper needle was passed through the myocardium around a prominent branch of the left coronary artery. The ends of the suture were passed through a small piece of soft vinyl tubing to form a snare. Ischemia was induced by pulling the snare and then fixing it by clamping the tube with a small hemostat. Ischemia was confirmed by appearance of cyanosis. Reperfusion was achieved by releasing the snare and was confirmed by visible hyperemia on the ventricular surface. After 3 h of reperfusion, the rabbit was given an overdose of pentobarbital and the heart was quickly removed from the chest, mounted on a Langendorff apparatus, and perfused with saline to wash out blood. Then the coronary artery was reoccluded, and 1 ml of 0.25% fluorescent polymer microspheres (2-9 μm diameter, Duke Scientific Corp, Palo Alto, Calif.) were infused into the perfusate to demarcate the risk zone as the area of tissue without fluorescence. The heart was weighed, frozen, and cut into 2.5-mm-thick slices. The slices were incubated in 1% triphenyltetrazolium chloride (TTC) in sodium phosphate buffer at 37° C. for 20 min. The slices were immersed in 10% formalin to enhance the contrast between stained (viable) and unstained (necrotic) tissue and then squeezed between glass plates spaced exactly 2 mm apart. The myocardium at risk was identified by illuminating the slices with ultraviolet light. The infarcted and risk zone areas were traced on a clear acetate sheet and quantified with planimetry by an investigator blinded to the treatment. The areas were converted into volumes by multiplying the areas by slice thickness. Infarct size is expressed as a percentage of the risk zone. Seven groups of rabbits were subjected to 45 min of regional ischemia followed by 3 h of reperfusion (FIG. 1). The PC was induced by a 5 min of regional ischemia followed by a 10 min reperfusion prior to the sustained ischemia. All groups receiving AMP 579 received a bolus injection of 30 μg/kg iv followed by an infusion of 3 μg/kg/min for 70 min. In PC+AMP (L) group, the hearts experienced PC and were treated with AMP 579 at reperfusion for 70 min. AMP 579 alone was given at reperfusion for 70 min in AMP (L) group. The hearts in AMP (E&L) group were treated with AMP 579 starting 5 min before ischemia for 120 min. An intravenous bolus injection of cariporide was given either 5 min prior to ischemia (Cariporide (E)) or 5 min before reperfusion (Cariporide (L)). All data are expressed as means±S.E.M. One-way ANOVA combined with Scheffé's post hoc test was used to test for differences in baseline hemodynamics and infarct size among groups. ANOVA with replication was used to test for changes in hemodynamics during an experiment within each group. A p value of less than 0.05 was considered to be significant.

open-chest rabbit hearts [2] = test: Infarct size, 60 min ischemia model (open-chest rabbit, TTC staining); type: in vivo, New Zealand White rabbits; conditions: 60 min ischemia + 3 h reperfusion; for Infarct size: (E)=5 min prior to ischemia, (L)=at reperfusion, AMP given at reperfusion, mean ± S.E.M.
Experimental: as §1, with “Pretreatment with cariporide was so potent that any additional protection would probably be undetectable with a 45-minute ischemic insult. We therefore chose a 60 min period” for “Seven groups”, “index” for “rabbits were subjected to 45 min of regional ischemia followed by 3 h of reperfusion (FIG. 1). The PC was induced by a 5 min of regional ischemia followed by a 10 min reperfusion prior to the sustained ischemia. All groups receiving AMP 579 received a bolus injection of 30 μg/kg iv followed by an infusion of 3 μg/kg/min for 70 min. In PC+AMP (L) group, the hearts experienced PC and were treated with AMP 579 at reperfusion for 70 min. AMP 579 alone was given at reperfusion for 70 min in AMP (L) group. The hearts in AMP (E&L) group were treated with AMP 579 starting 5 min before”, “these studies. […]” for “120 min. An intravenous bolus injection of cariporide was given either 5 min prior to ischemia (Cariporide (E)) or 5 min before reperfusion (Cariporide (L)).”, “ANOVA with replication was used to test for changes in hemodynamics during an experiment within each group. A p value of less than 0.05 was considered to be significant.” left out

## CCNC(=O)[C@H]1CC(n2cnc3c(N[C@H](CC)Cc4sccc4Cl)ccnc32)[C@H](O)[C@@H]1O (relative stereo) [AMP 579, [1S-[1α,2β,3β,4α(S*)]]-4-[7-[[3-chloro-2-thienyl)methyl]propyl]amino]-3H-imidazo[4,5-b]pyridin-3-yl]-N-ethyl-2,3-dihydroxycyclopentanecarboxamide]
open-chest rabbit hearts [1]; listed as AMP (E&L)
  Infarct size: 0.26 ± 0.05* cm^3
open-chest rabbit hearts [1]; listed as AMP (L)
  Infarct size: 0.37 ± 0.03* cm^3
open-chest rabbit hearts [1]; AMP 579 alone, 30 μg/kg iv bolus + 3 μg/kg/min for 70 min starting at reperfusion
  Infarct size as a percentage of the risk zone: 32.1±1.8%
open-chest rabbit hearts [2]
  Infarct size: 0.59 ± 0.09 cm^3
open-chest rabbit hearts [2]; AMP 579 alone at reperfusion (30 μg/kg + 3 μg/kg/min, 70 min), not significant vs control 66.0±4.9%
  Infarct size as a percentage of the risk zone: 45.3±5.4%

## CC(C)c1ccc(C(=O)N=C(N)N)cc1S(C)(=O)=O [Cariporide, 4-isopropyl-3-methylsulfonylbenzoylguanidine methane sulfonate]
open-chest rabbit hearts [1]; listed as Cariporide (E)
  Infarct size: 0.13 ± 0.07* cm^3
open-chest rabbit hearts [1]; listed as Cariporide (L)
  Infarct size: 0.60 ± 0.08 cm^3
open-chest rabbit hearts [1]; cariporide iv bolus 5 min prior to ischemia (pretreatment)
  Infarct size as a percentage of the risk zone: 8.5±3.7%
open-chest rabbit hearts [1]; cariporide iv bolus just prior to reperfusion
  Infarct size as a percentage of the risk zone: 53.4±3.5%
open-chest rabbit hearts [2]
  Infarct size: 0.47 ± 0.08* cm^3
open-chest rabbit hearts [2]; cariporide 0.5 mg/kg bolus 5 min prior to ischemia, control 66.0±4.9%
  Infarct size as a percentage of the risk zone: 41.5±7.7%
